Results reported in US12404295B2, “(Hetero)aryl-methyl-thio-beta-D-galactopyranoside derivatives” (Idorsia Pharmaceuticals Ltd, priority 2019, dated 2025).
Like-named read-outs stand apart in the source and are kept apart here.

Target: human Gal-3 (hGal-3) (Homo sapiens (Human), UniProt P17931)
Test: competitive binding assay: biotinylated hGal-3 binding to microplate-adsorbed asialofetuin (ASF)
Description: If not explicitly mentioned otherwise, the inhibition data refer to the binding of biotinylated human Gal-3 (hGal-3).
Evaluation of Compound Inhibitory Activity (IC50)
The inhibitory activity of compounds is determined in competitive binding assays.
Briefly, compounds are serially diluted in DMSO (working dilutions).
Plates are incubated for 3 hours at 4° C., then washed with cold assay buffer (3×50 uL), incubated for 1 hour with 25 μL/well of a streptavidin-peroxidase solution (diluted in assay buffer to 80 ng/mL) at 4° C., followed by further washing steps with assay buffer (3×50 uL). Finally, 25 μL/well of ABTS substrate is added.
The calculated IC50 values may fluctuate depending on the daily assay performance. Fluctuations of this kind are known to those skilled in the art. IC50 values from several measurements are given as mean values.

[1] = Gal-3 inhibition, binding of biotinylated hGal-3 to ASF, mean values, read-out: IC50
[2] = Table 11, read-out: IC50 (Gal-3 inhibition)
[3] = Table 5, read-out: IC50 (Gal-3 inhibition)

Chain of human Gal-3 (hGal-3) (P17931 whole entry): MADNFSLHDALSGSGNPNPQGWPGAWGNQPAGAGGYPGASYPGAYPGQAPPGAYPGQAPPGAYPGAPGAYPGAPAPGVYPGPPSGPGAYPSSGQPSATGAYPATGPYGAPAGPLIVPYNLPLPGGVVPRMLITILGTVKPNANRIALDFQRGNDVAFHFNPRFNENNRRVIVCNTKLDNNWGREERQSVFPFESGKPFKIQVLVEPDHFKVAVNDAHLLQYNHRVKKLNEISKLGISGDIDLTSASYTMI

| Structure (SMILES) | IC50 [1] | also measured |
| --- | --- | --- |
| CC(C)Cc1c([C@@H](S[C@@H]2O[C@H](CO)[C@H](O)[C@H](n3cc(-c4cc(F)c(F)c(F)c4)nn3)[C@H]2O)C2(O)CCC(F)(F)CC2)noc1C1CC1 [2.44.131 R., (2S,3R,4S,5R,6R)-2-(((R)-(5-Cyclopropyl-4-isobutylisoxazol-3-yl)(4,4-difluoro-1-hydroxycyclohexyl)methyl)thio)-6-(hydroxymethyl)-4-(4-(3,4,5-trifluorophenyl)-1H-1,2,3-triazol-1-yl)tetrahydro-2H-pyran-3,5-diol] | 0.05 µM | – |
| OC[C@H](S[C@@H]1O[C@H](CO)[C@H](O)[C@H](n2cc(-c3cc(F)c(F)c(F)c3)nn2)[C@H]1O)c1ccccc1 [Example 2.30.100R., (2S,3R,4S,5R,6R)-2-(((R)-2-Hydroxy-1-phenylethyl)thio)-6-(hydroxymethyl)-4-(4-(3,4,5-trifluorophenyl)-1H-1,2,3-triazol-1-yl)tetrahydro-2H-pyran-3,5-diol] | 0.8 µM | – |
| CC(C)(O)C(S[C@@H]1O[C@H](CO)[C@H](O)[C@H](n2cc(-c3cc(F)c(F)c(F)c3)nn2)[C@H]1O)c1ccccc1Cl (stereo partly drawn) [Example 2.31.111., (2S,3R,4S,5R,6R)-2-((1-(2-Chlorophenyl)-2-hydroxy-2-methylpropyl)thio)-6-(hydroxymethyl)-4-(4-(3,4,5-trifluorophenyl)-1H-1,2,3-triazol-1-yl)tetrahydro-2H-pyran-3,5-diol] | 0.41 µM | – |
| CO[C@@H]1[C@@H](n2cc(-c3cc(F)c(F)c(F)c3)nn2)[C@@H](O)[C@@H](CO)O[C@H]1S[C@H](c1ccccc1C(F)(F)F)[C@]1(O)CCOC(C)(C)C1 [Example 2.43.112RS.I, (2R,3R,4S,5R,6S)-6-(((R)-((S)-4-Hydroxy-2,2-dimethyltetrahydro-2H-pyran-4-yl)(2-(trifluoromethyl)phenyl)methyl)thio)-2-(hydroxymethyl)-5-methoxy-4-(4-(3,4,5-trifluorophenyl)-1H-1,2,3-triazol-1-yl)tetrahydro-2H-pyran-3-ol] | – | IC50 (Table 9, 2-OMe-Gal inhibitors, read-out: IC50 (Gal-3 inhibition)): 0.14 µM |
| CO[C@@H]1[C@@H](n2cc(-c3cc(F)c(F)c(F)c3)nn2)[C@@H](O)[C@@H](CO)O[C@H]1S[C@H](c1ncccc1C)[C@@]1(O)CCOC(C)(C)C1 [Example 2.43.126RR.I., (2R,3R,4S,5R,6S)-6-(((R)-((R)-4-Hydroxy-2,2-dimethyltetrahydro-2H-pyran-4-yl)(3-methylpyridin-2-yl)methyl)thio)-2-(hydroxymethyl)-5-methoxy-4-(4-(3,4,5-trifluorophenyl)-1H-1,2,3-triazol-1-yl)tetrahydro-2H-pyran-3-ol] | – | IC50 [2]: 0.73 µM |
| CO[C@@H]1[C@@H](n2cc(-c3cc(F)c(F)c(F)c3)nn2)[C@@H](O)[C@@H](CO)O[C@H]1S[C@@H](c1ncccc1C)[C@@]1(O)CCOC(C)(C)C1 [Example 2.43.126SR.I., (2R,3R,4S,5R,6S)-6-(((S)-((R)-4-Hydroxy-2,2-dimethyltetrahydro-2H-pyran-4-yl)(3-methylpyridin-2-yl)methyl)thio)-2-(hydroxymethyl)-5-methoxy-4-(4-(3,4,5-trifluorophenyl)-1H-1,2,3-triazol-1-yl)tetrahydro-2H-pyran-3-ol] | – | IC50 [2]: 3.5 µM |
| CO[C@@H]1[C@@H](n2cc(-c3cc(F)c(F)c(F)c3)nn2)[C@@H](O)[C@@H](CO)O[C@H]1S[C@@H](c1ncccc1C)[C@]1(O)CCOC(C)(C)C1 [Example 2.43.126SS.I., (2R,3R,4S,5R,6S)-6-(((S)-((S)-4-Hydroxy-2,2-dimethyltetrahydro-2H-pyran-4-yl)(3-methylpyridin-2-yl)methyl)thio)-2-(hydroxymethyl)-5-methoxy-4-(4-(3,4,5-trifluorophenyl)-1H-1,2,3-triazol-1-yl)tetrahydro-2H-pyran-3-ol] | – | IC50 [2]: 1.9 µM |
| OC[C@H]1O[C@@H](S[C@H](c2ccccc2Cl)C2(O)CCC(F)(F)CC2)[C@H](O)[C@@H](n2cc(-c3cc(F)c(F)c(F)c3)nn2)[C@H]1O [Example 2.44.111R, (2S,3R,4S,5R,6R)-2-(((R)-(2-Chlorophenyl)(4,4-difluoro-1-hydroxycyclohexyl)methyl)thio)-6-(hydroxymethyl)-4-(4-(3,4,5-trifluorophenyl)-1H-1,2,3-triazol-1-yl)tetrahydro-2H-pyran-3,5-diol] | – | IC50 [3]: 0.09 µM |
| OC[C@H]1O[C@@H](S[C@@H](c2ccccc2Cl)C2(O)CCC(F)(F)CC2)[C@H](O)[C@@H](n2cc(-c3cc(F)c(F)c(F)c3)nn2)[C@H]1O [Example 2.44.111S, (2S,3R,4S,5R,6R)-2-(((S)-(2-Chlorophenyl)(4,4-difluoro-1-hydroxycyclohexyl)methyl)thio)-6-(hydroxymethyl)-4-(4-(3,4,5-trifluorophenyl)-1H-1,2,3-triazol-1-yl)tetrahydro-2H-pyran-3,5-diol] | – | IC50 [3]: 18.4 µM |
| CS(=O)(=O)N1CCC(O)(C(S[C@@H]2O[C@H](CO)[C@H](O)[C@H](n3cc(-c4cc(F)c(F)c(F)c4)nn3)[C@H]2O)c2ccccc2C(F)(F)F)CC1 (stereo partly drawn) [Example 2.47.112., (2S,3R,4S,5R,6R)-2-(((4-Hydroxy-1-(methylsulfonyl)piperidin-4-yl)(2-(trifluoromethyl)phenyl)methyl)thio)-6-(hydroxymethyl)-4-(4-(3,4,5-trifluorophenyl)-1H-1,2,3-triazol-1-yl)tetrahydro-2H-pyran-3,5-diol] | 0.07 µM | – |
| CO[C@@H]1[C@@H](n2cc(-c3cc(F)c(F)c(F)c3)nn2)[C@@H](O)[C@@H](CO)O[C@H]1SC(c1ncccc1C)C1(O)CCC2(CCOCC2)CC1 (stereo partly drawn) [Example 2.72.126.I, 9-((((2S,3R,4S,5R,6R)-5-Hydroxy-6-(hydroxymethyl)-3-methoxy-4-(4-(3,4,5-trifluorophenyl)-1H-1,2,3-triazol-1-yl)tetrahydro-2H-pyran-2-yl)thio)(3-methylpyridin-2-yl)methyl)-3-oxaspiro[5.5]undecan-9-ol] | – | IC50 [2]: 0.13 µM |
| CS(=O)(=O)N1CC(O)(C(S[C@@H]2O[C@H](CO)[C@H](O)[C@H](n3cc(-c4cc(F)c(F)c(F)c4)nn3)[C@H]2O)c2ccccc2C(F)(F)F)C1 (stereo partly drawn) [Example 2..57.112., (2S,3R,4S,5R,6R)-2-(((3-Hydroxy-1-(methylsulfonyl)azetidin-3-yl)(2-(trifluoromethyl)phenyl)methyl)thio)-6-(Hydroxymethyl)-4-(4-(3,4,5-trifluorophenyl)-1H-1,2,3-triazol-1-yl)tetrahydro-2H-pyran-3,5-diol] | 0.22 µM | – |
| CS(=O)(=O)N1CC(O)([C@H](S[C@@H]2O[C@H](CO)[C@H](O)[C@H](n3cc(-c4cc(F)c(F)c(F)c4)nn3)[C@H]2O)c2ccccc2C(F)(F)F)C1 [Example 2..57.112R., (2S,3R,4S,5R,6R)-2-(((R)-(3-Hydroxy-1-(methylsulfonyl)azetidin-3-yl)(2-(trifluoromethyl)phenyl)methyl)thio)-6-(hydroxymethyl)-4-(4-(3,4,5-trifluorophenyl)-1H-1,2,3-triazol-1-yl)tetrahydro-2H-pyran-3,5-diol] | 0.17 µM | – |
| CS(=O)(=O)N1CC(O)([C@@H](S[C@@H]2O[C@H](CO)[C@H](O)[C@H](n3cc(-c4cc(F)c(F)c(F)c4)nn3)[C@H]2O)c2ccccc2C(F)(F)F)C1 [Example 2..57.112S., (2S,3R,4S,5R,6R)-2-(((S)-(3-Hydroxy-1-(methylsulfonyl)azetidin-3-yl)(2-(trifluoromethyl)phenyl)methyl)thio)-6-(hydroxymethyl)-4-(4-(3,4,5-trifluorophenyl)-1H-1,2,3-triazol-1-yl)tetrahydro-2H-pyran-3,5-diol] | 5.8 µM | – |
